Peptide text beside a SMILES is read from it. * marks the point of attachment. Stearoyl = CCCCCCCCCCCCCCCCCC(=O)*
Experiments:
[1] = system: HIV-1 strain NL4-3 pseudovirus (D36G mutant); assay type: cell-based
Protocol: The supernatant was discarded from the wells. […] Inhibition rate (%) and IC50 value were calculated.

HIV-1 strain JRCSF = assay type: cell-based
Protocol: Inhibition rate (%) and IC50 value were calculated.

[2] = system: HIV-2 strain ROD (infectious); assay: inhibition of HIV-2; assay type: cell-based; settings: HIV-2 ROD
[3] = system: HIV-1 strain NL4-3 (NL4-3D36G); assay: antiviral activity in serum of macaque after subcutaneous injection; assay type: in vivo, macaques (rhesus monkeys); settings: 3 mg/kg subcutaneous
[4] = pharmacokinetic analysis in SD rats; settings: for level at 72 h / level at time molar at 72 h: both, SD, rat, serum, 6 mg/kg
Protocol: The pharmacokinetic parameters were calculated using a non-compartmental analysis model (NCA).

Figure 9 = assay: Figure 9
Text: Table printed on a drawing sheet, Figure 9
First reader's note: Panel B of Figure 9; each value cell holds the value ± its error, and each column is one route of administration.

CCCCCCCCCCCCCCCCCC(=O)NCCCC[C@H](NC(=O)[C@H](CCC(=O)O)NC(=O)[C@H](CC(C)C)NC(=O)[C@H](CCCCN)NC(=O)[C@H](CCCCN)NC(=O)[C@H](CC(C)C)NC(=O)[C@H](CCC(=O)O)NC(=O)[C@H](CCC(=O)O)NC(=O)[C@H](CCC(=O)O)NC(=O)[C@H](CC(N)=O)NC(=O)[C@H](CCCCN)NC(=O)[C@H](CCCCN)NC(=O)[C@H](CCC(N)=O)NC(=O)[C@H](CCC(N)=O)NC(=O)[C@H](CCC(=O)O)NC(=O)[C@H](CCC(=O)O)NC(=O)[C@H](C)NC(=O)[C@H](CCCCN)NC(=O)[C@H](CCCCN)NC(=O)[C@H](CC(C)C)NC(=O)[C@H](CC(C)C)NC(=O)[C@H](CCC(=O)O)NC(=O)[C@H](CCC(=O)O)NC(=O)[C@@H](NC(=O)[C@H](CCCCN)NC(=O)[C@H](CCC(N)=O)NC(=O)[C@H](CCC(=O)O)NC(=O)[C@H](Cc1c[nH]c2ccccc12)NC(C)=O)[C@@H](C)CC)C(N)=O [LP-80] (Ac-WEQKIEELLKKAEEQQKKNEEELKKLEK(Stearoyl)-NH2)
IC50 ([1]; Entry of NL4-3 (D36G), read-out: IC50 for inhibiting pseudovirus): 2 pM | inhibitory activity against NL4-3 entry (in words) ([1]; compared with LP-52): even greater than that of C16-modified LP-52 | IC50 (HIV-1 strain JRCSF; Replication of JRCSF, read-out: IC50 for inhibiting replicative virus): 2 pM | inhibitory activity against JRCSF replication (in words) (HIV-1 strain JRCSF; compared with LP-52): even greater than that of C16-modified LP-52 | inhibitory activity against HIV-2 (in words) [2]: extremely potent inhibitory activity | maximum serum dilution multiple for inhibiting 50% of NL4-3 infectivity ([3]; 6 hour after injection): 491409 folds | maximum serum dilution multiple for inhibiting 50% of NL4-3 infectivity ([3]; 8 hour after injection): 537206 folds | maximum serum dilution multiple for inhibiting 50% of NL4-3 infectivity ([3]; 72 hours (3 days) after injection): 16157 folds | maximum serum dilution multiple for inhibiting 50% of NL4-3 infectivity ([3]; 96 hours (4 days) after injection): 1980 folds | maximum serum dilution multiple for inhibiting 50% of NL4-3 infectivity ([3]; 120 hours (5 days) after injection): 211 folds | maximum serum dilution multiple for inhibiting 50% of NL4-3 infectivity ([3]; 144 hours (6 days) after injection): 46 folds | serum concentration as folds of the IC50 value (2 pM) ([4]; 72 hours after intravenous injection): 1010.56 folds | serum concentration as folds of the IC50 value (2 pM) ([4]; 72 hours after subcutaneous injection): 894.51 folds | level at 72 h ([4]; iv): 7.75 ng/mL | level at time molar at 72 h ([4]; iv): 2.02 nM | level at 72 h ([4]; sc): 6.86 ng/mL | level at time molar at 72 h ([4]; sc): 1.79 nM | Fabs | % (Figure 9): 39.53%

Source: US11680086B2, “Lipopeptide for potently inhibiting HIV, derivative thereof, pharmaceutical composition thereof and use thereof” (Institute of Pathogen Biology, Chinese Academy of Medical …, priority 2017, dated 2023)
